Test results as given in PubChem BioAssay AID248 (DTP/NCI, 2004).
“And” between values parts separate entries of the source, which are not always exact repeats. Equal entries are not always repeated. Inconclusive results and toxic doses are left out. Cut-off read from the data, not from the text of the source: active = T/C of 150% or more; inactive = T/C below 125%.

Tested on: L1210 leukemia ip in BDF1 mice, survival T/C
Experiment: NCI In Vivo Anticancer Drug Screen. Data for tumor model L1210 Leukemia (intraperitoneal) in B6D2F1 (BDF1) mice
Conditions: endpoint: mean survival time, higher = longer survival
Method in brief: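 Ratio derived from survival: compound-dosed mice over vehicle-dosed mice, all bearing a transplantable tumor.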

[1] = dose: 100.0 mg/kg/injection, schedule: Q04DX002 (ip), vehicle: Klucel (hydroxypropylcellulose) (HPC)
[2] = dose: 100.0 mg/kg/injection, schedule: Q04DX002 (ip), vehicle: saline with Tween-80
[3] = dose: 200.0 mg/kg/injection, schedule: Q04DX002 (ip), vehicle: Klucel (hydroxypropylcellulose) (HPC)
[4] = dose: 200.0 mg/kg/injection, schedule: Q04DX002 (ip), vehicle: saline with Tween-80
[5] = dose: 400.0 mg/kg/injection, schedule: Q04DX002 (ip), vehicle: Klucel (hydroxypropylcellulose) (HPC)
[6] = dose: 50.0 mg/kg/injection, schedule: Q01DX009 (ip), vehicle: saline with Tween-80
[7] = dose: 100.0 mg/kg/injection, schedule: Q01DX009 (ip), vehicle: saline with Tween-80
[8] = dose: 100.0 mg/kg/injection, schedule: Q01DX001 (ip), vehicle: carboxymethylcellulose (CMC)
[9] = dose: 200.0 mg/kg/injection, schedule: Q01DX001 (ip), vehicle: carboxymethylcellulose (CMC)
[10] = dose: 100.0 mg/kg/injection, schedule: Q01DX001 (ip), vehicle: saline
[11] = dose: 200.0 mg/kg/injection, schedule: Q01DX001 (ip), vehicle: saline
[12] = dose: 400.0 mg/kg/injection, schedule: Q01DX001 (ip), vehicle: saline
[13] = dose: 100.0 mg/kg/injection, schedule: Q04DX003 (ip), vehicle: Klucel (hydroxypropylcellulose) (HPC)
[14] = dose: 200.0 mg/kg/injection, schedule: Q04DX003 (ip), vehicle: Klucel (hydroxypropylcellulose) (HPC)

Measured: T/C

CC(=O)[O][Pb]([O]C(C)=O)([c]1ccccc1)[c]1ccccc1
inactive: [1] 98 % of control | [2] 102 % of control | [3] 102 % of control | [4] 102 % of control | [5] 105 % of control

COC(=O)C(CSCSC)NC(=O)/C=C/c1ccccc1Cl (configuration not stated)
inactive: [6] 97 % of control and 86 % of control | [7] 92 % of control | dose: 100.0 mg/kg/injection, schedule: Q04DX003 (ip), vehicle: saline with Tween-80 94 % of control | dose: 200.0 mg/kg/injection, schedule: Q01DX009 (ip), vehicle: saline with Tween-80 93 % of control and 92 % of control | dose: 200.0 mg/kg/injection, schedule: Q04DX003 (ip), vehicle: saline with Tween-80 91 % of control | dose: 400.0 mg/kg/injection, schedule: Q04DX003 (ip), vehicle: saline with Tween-80 87 % of control

ClCCCNCc1ccc(-c2c3ccccc3cc3c2ccc2ccccc23)cc1
inactive: [8] 95 % of control | [9] 101 % of control

COC(OC)c1cccc([N+](=O)[O-])c1
inactive: dose: 50.0 mg/kg/injection, schedule: Q01DX001 (ip), vehicle: saline 111 % of control | [10] 107 % of control | [11] 102 % of control | [12] 100 % of control

O=C1C=CC(=O)C2=C1C1c3ccccc3C2c2ccccc21
inactive: dose: 50.0 mg/kg/injection, schedule: Q04DX002 (ip), vehicle: saline with Tween-80 95 % of control | [2] 95 % of control and 98 % of control | [4] 92 % of control | dose: 400.0 mg/kg/injection, schedule: Q04DX002 (ip), vehicle: saline with Tween-80 114 % of control

O=S1(=O)C=C(Br)CC1
inactive: dose: 75.0 mg/kg/injection, schedule: Q01DX001 (ip), vehicle: saline with Tween-80 97 % of control | dose: 150.0 mg/kg/injection, schedule: Q01DX001 (ip), vehicle: saline with Tween-80 97 % of control | dose: 300.0 mg/kg/injection, schedule: Q01DX001 (ip), vehicle: saline with Tween-80 95 % of control

C=C(C)C1(CCC(C)C)C(=O)NC(=O)NC1=O
inactive: dose: 75.0 mg/kg/injection, schedule: Q01DX001 (ip), vehicle: saline 109 % of control | dose: 150.0 mg/kg/injection, schedule: Q01DX001 (ip), vehicle: saline 104 % of control | dose: 300.0 mg/kg/injection, schedule: Q01DX001 (ip), vehicle: saline 105 % of control

CCCC(=O)CCCCNC(=O)c1ccccc1
inactive: [2] 99 % of control | [4] 89 % of control

COc1ccc(NC(=S)Nc2ccccn2)cc1
inactive: dose: 100.0 mg/kg/injection, schedule: Q01DX009 (ip), vehicle: other 106 % of control | dose: 100.0 mg/kg/injection, schedule: Q04DX003 (ip), vehicle: saline 101 % of control | dose: 200.0 mg/kg/injection, schedule: Q01DX009 (ip), vehicle: other 97 % of control | dose: 200.0 mg/kg/injection, schedule: Q04DX003 (ip), vehicle: saline 87 % of control | dose: 400.0 mg/kg/injection, schedule: Q01DX009 (ip), vehicle: other 103 % of control | dose: 400.0 mg/kg/injection, schedule: Q04DX003 (ip), vehicle: saline 98 % of control

Cc1nccc2c(C)c3c(cc12)c1ccccc1n3CC1CO1 (configuration not stated)
inactive: dose: 4.69 mg/kg/injection, schedule: Q01DX009 (ip), vehicle: saline with Tween-80 119 % of control | dose: 9.37 mg/kg/injection, schedule: Q04DX003 (ip), vehicle: saline with Tween-80 113 % of control | dose: 18.75 mg/kg/injection, schedule: Q01DX009 (ip), vehicle: saline with Tween-80 124 % of control | dose: 18.75 mg/kg/injection, schedule: Q04DX003 (ip), vehicle: saline with Tween-80 119 % of control | dose: 37.5 mg/kg/injection, schedule: Q01DX009 (ip), vehicle: saline with Tween-80 103 % of control | dose: 37.5 mg/kg/injection, schedule: Q04DX003 (ip), vehicle: saline with Tween-80 122 % of control | dose: 75.0 mg/kg/injection, schedule: Q01DX009 (ip), vehicle: saline with Tween-80 92 % of control | dose: 150.0 mg/kg/injection, schedule: Q04DX003 (ip), vehicle: saline with Tween-80 115 % of control

O=C1C=CC(=O)C2C3CC(C4OC34)C12 (configuration not stated)
inactive: dose: 25.0 mg/kg/injection, schedule: Q01DX009 (ip), vehicle: saline with Tween-80 102 % of control | [6] 94 % of control | [7] 100 % of control and 89 % of control

O=C1OC2CCCCC2OC1=O (configuration not stated)
inactive: [10] 101 % of control | [11] 101 % of control

CCCCCC(C)(O)CC(C)(C)C (configuration not stated)
inactive: [8] 92 % of control | [9] 97 % of control | dose: 400.0 mg/kg/injection, schedule: Q01DX001 (ip), vehicle: carboxymethylcellulose (CMC) 97 % of control

NC(=O)C1CCCN1Cc1ccc2c(c1)OCO2 (configuration not stated)
inactive: [10] 97 % of control | [11] 94 % of control | [12] 94 % of control

CC(C)=CCc1c(N)nc(N)[nH]c1=O
inactive: [1] 98 % of control | [3] 98 % of control | [5] 106 % of control

Cc1cccc2nc(-c3ccccc3)ccc12
inactive: dose: 6.0 mg/kg/injection, schedule: Q01DX009 (ip), vehicle: other 100 % of control | dose: 12.0 mg/kg/injection, schedule: Q01DX009 (ip), vehicle: other 92 % of control | dose: 12.0 mg/kg/injection, schedule: Q04DX003 (ip), vehicle: saline 92 % of control | dose: 25.0 mg/kg/injection, schedule: Q01DX009 (ip), vehicle: other 94 % of control | dose: 25.0 mg/kg/injection, schedule: Q04DX003 (ip), vehicle: saline 98 % of control

O=C(O)/C(=C\C#Cc1ccccc1)c1ccccc1
inactive: [13] 94 % of control | [14] 100 % of control

O=C(O)C(Nc1cccc2ccccc12)c1ccccc1 (configuration not stated)
inactive: [1] 97 % of control | [3] 111 % of control

O=c1cc(CCl)occ1O
inactive: dose: 50.0 mg/kg/injection, schedule: Q04DX003 (ip), vehicle: Klucel (hydroxypropylcellulose) (HPC) 95 % of control | [13] 98 % of control | [14] 97 % of control

Cc1cc(C)c(S(=O)(=O)Cc2cc(Cl)cc(Cl)c2O)c(C)c1
inactive: dose: 50.0 mg/kg/injection, schedule: Q01DX009 (ip), vehicle: saline 86 % of control | dose: 50.0 mg/kg/injection, schedule: Q04DX003 (ip), vehicle: acetone 93 % of control | [10] 88 % of control | dose: 100.0 mg/kg/injection, schedule: Q01DX009 (ip), vehicle: saline 105 % of control | dose: 100.0 mg/kg/injection, schedule: Q04DX003 (ip), vehicle: acetone 89 % of control | [11] 87 % of control | dose: 200.0 mg/kg/injection, schedule: Q01DX009 (ip), vehicle: saline 91 % of control | dose: 200.0 mg/kg/injection, schedule: Q04DX003 (ip), vehicle: acetone 91 % of control

O=C(O)c1cccc(OCc2ccccc2)c1
inactive: dose: 100.0 mg/kg/injection, schedule: Q01DX009 (ip), vehicle: Klucel (hydroxypropylcellulose) (HPC) 105 % of control | dose: 200.0 mg/kg/injection, schedule: Q01DX009 (ip), vehicle: Klucel (hydroxypropylcellulose) (HPC) 100 % of control

N#C/C(=C(/C#N)c1ccccc1)c1ccccc1
inactive: dose: 100.0 mg/kg/injection, schedule: Q01DX001 (ip), vehicle: saline with Tween-80 95 % of control | dose: 200.0 mg/kg/injection, schedule: Q01DX001 (ip), vehicle: saline with Tween-80 93 % of control | dose: 400.0 mg/kg/injection, schedule: Q01DX001 (ip), vehicle: saline with Tween-80 91 % of control
